Experimental data taken from patent US9067974B2, “Polymyxin derivatives and uses thereof” (priority 2006, dated 2015).
Values joined by “and” are separate entries in the source; they are usually repeats but may differ in a detail not shown here. Equal entries are not always repeated.

Legend:
P. mirabilis ATCC29906 = test: Well diffusion growth inhibition on LB agar plates (direct antibacterial activity); type: cell-based, Proteus mirabilis
Experimental: (§1) From an overnight-grown culture of IH3080 on LB agar, a suspension of approx. 10^8 cells/ml was prepared in 0.9% NaCl. Aliquots of this suspension were then pipetted on the agar plates and the plates were gently shaken to spread the suspension evenly on the entire surface of the plate. Thereafter, the unabsorbed part of the suspension was removed by using a Pasteur pipette. After the surface had dried, small wells (diameter, 2 mm) were drilled on the plates (five wells per plate) by using a sterile sharp-edged narrow metal tube, single-use pipette tip, and vacuum suction. Samples (4 μl and 10 μl) of the peptide solution in 0.9% NaCl (at concentrations of 1 μg/ml and 0.1 μg/ml) were then pipetted to the wells and the sample fluids were allowed to absorb. Controls included 0.9% NaCl solution without the compound to be tested. The plates were then incubated for 18 h at 37° C. whereafter the diameters of growth inhibition zones around each well were measured; the diameter of the well itself was not reduced. Finally, the diameters were converted to surface areas of growth inhibition (in square mm).
(§2) The susceptibility of eleven Gram-negative bacterial strains (nine different species) to NAB734 and polymyxin B was compared by using the susceptibility determination method described in Example 2. The strains included those belonging to the species of Serratia marcescens and Proteus mirabilis, both species generally known to be resistant to polymyxin. Furthermore, the susceptibility determination was also performed by using the Gram-positive bacterium, Staphylococcus aureus, also generally known to be polymyxin-resistant. Ten of the strains originated from ATCC (American Type Culture Collection, Manassas, Va., U.S.A.), and one from CCUG (Culture Collection of University of Gothenburg, Sweden). The source of E. coli IH3080 has been described in Example 2. Polymyxin B sulfate was from Sigma-Aldrich (St. Louis, Mo., USA).

E. coli IH3080 (K1:O18) [1] = test: as above; type: cell-based, Escherichia coli
Summary of the method: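 Growth inhibition of encapsulated E. coli IH3080 (K1:O18) was measured by well diffusion on LB agar plates. A suspension of about 10^8 cells/ml in 0.9% NaCl, made from an overnight LB agar culture, was spread over the plates and the excess removed. Once dry, five 2 mm wells were drilled per plate and test solutions added, with 0.9% NaCl as control. After 18 h at 37° C, inhibition zone diameters were measured and converted to surface areas in square mm.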

A. baumannii ATCC 19606 = test: Sensitization to rifampin: well diffusion growth inhibition on LB plates containing rifampin; type: cell-based, Acinetobacter baumannii; conditions: 4 μg of compound
S. marcescens ATCC8100 = test: Well diffusion growth inhibition on LB agar plates (direct antibacterial activity); type: cell-based, Serratia marcescens
Experimental: as §1, §2

E. coli ATCC25922 = test: as above; type: cell-based, Escherichia coli
Experimental: as §1, with “Samples (4 μl and 10 μl) of the peptide solution in 0.9% NaCl (at concentrations of 1 μg/ml and 0.1 μg/ml) were then pipetted to the wells and the sample fluids were allowed to absorb.” left out
as §2

K. pneumoniae CCUG45421 = test: as above; type: cell-based, Klebsiella pneumoniae
Experimental: as §1, with “Samples (4 μl and 10 μl) of the peptide solution in 0.9% NaCl (at concentrations of 1 μg/ml and 0.1 μg/ml) were then pipetted to the wells and the sample fluids were allowed to absorb.” left out
as §2

K. oxytoca ATCC13182 = test: as above; type: cell-based, Klebsiella oxytoca
Experimental: as §1, §2

E. coli IH3080 = test: Sensitization to rifampin: well diffusion growth inhibition on LB plates containing rifampin; type: cell-based, Escherichia coli; conditions: 4 μg of compound
S. aureus ATCC 25923 = test: Well diffusion growth inhibition on LB agar plates (direct antibacterial activity); type: cell-based, Staphylococcus aureus
Experimental: as §1, with “Samples (4 μl and 10 μl) of the peptide solution in 0.9% NaCl (at concentrations of 1 μg/ml and 0.1 μg/ml) were then pipetted to the wells and the sample fluids were allowed to absorb.” left out
as §2

K. pneumoniae ATCC13883 = test: as above; type: cell-based, Klebsiella pneumoniae
Experimental: as §1, §2

[2] = system: Pseudomonas aeruginosa ATCC 27853; test: as above; type: cell-based; conditions: Ps. aeruginosa ATCC 27853
Summary of the method: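 Pseudomonas aeruginosa ATCC 27853 was tested for direct antibacterial susceptibility by agar well diffusion. A suspension of about 10^8 cells/ml in 0.9% NaCl was spread over LB agar and the excess removed. After drying, 2 mm wells were drilled and filled with compound dissolved in 0.9% NaCl, with NaCl alone as control. Plates were incubated 18 h at 37° C, and inhibition zone diameters were measured and converted to areas in square mm.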

[3] = system: Acinetobacter baumannii ATCC 19606; test: as above; type: cell-based; conditions: A. baumannii ATCC 19606
Summary of the method: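 Direct antibacterial activity against Acinetobacter baumannii ATCC 19606 was measured by agar well diffusion on LB plates. The plates were flooded with a suspension of approx. 10^8 cells/ml in 0.9% NaCl, and the excess was removed. Once the surface dried, five wells of 2 mm diameter were drilled per plate. The wells were filled with test compound dissolved in 0.9% NaCl, with plain 0.9% NaCl as control. After 18 h at 37° C., inhibition zone diameters were measured and converted to growth inhibition areas in square mm.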

E. cloacae ATCC23355 = test: as above; type: cell-based, Enterobacter cloacae
Experimental: as §1, §2

[4] = system: Ps. aeruginosa ATCC 27853; test: Sensitization to rifampin: well diffusion growth inhibition on LB plates containing rifampin; type: cell-based, Pseudomonas aeruginosa; conditions: 4 μg of compound
C. freundii ATCC8090 = test: Well diffusion growth inhibition on LB agar plates (direct antibacterial activity); type: cell-based, Citrobacter freundii
Experimental: as §1, §2

E. coli IH3080 (K1:O18) [5] = test: Experimental E. coli peritonitis model in mice; type: in vivo; conditions: 5 mg/kg subcutaneous
Experimental: A suspension of E. coli IH3080 (K1:O18) in saline (0.9% NaCl) was prepared from an overnight culture on a blood agar plate (Statens Serum Institut, Copenhagen, Denmark). All mice (female NMR1 from Harlan Scandinavia, Allerød, Denmark; weight, 25-30 g) were inoculated intraperitoneally with 0.5 ml of the suspension containing 0.96×10^6 CFU per ml in the lateral lower quadrant of the abdomen. At 1 h, the CFU count was determined from three mice and the remaining mice (four mice per group) were treated with a subcutaneous injection of 0.2 ml of erythromycin solution in saline (corresponding to 5 mg/kg body weight) or NAB7061 solution in saline (corresponding to 5 mg/kg body weight), or both erythromycin and NAB7061 (corresponding to 5 mg/kg body weight of both drugs; given at two separate sites). Control group received two 0.2 ml injections of saline. At 4.5 h postinfection, all mice were anaesthetized with CO2 and sacrificed. Sterile saline (2 ml) was injected intraperitoneally and the abdomen was gently massaged before it was opened and the fluid sampled. Appropriate dilutions of the fluid were plated on blood agar plates, the plates were incubated overnight, and the colonies were counted.

[6] = target: brush-border membrane (BBM) from the renal cortex; test: Inhibition of [3H] gentamycin binding to brush-border membrane vesicles; parameters: species or system rats; conditions: 20 μM [3H] gentamycin; 60 min at 4° C.; rat renal cortex BBM vesicles
Description: The binding of the compounds according to this invention to isolated brush-border membrane (BBM) from the renal cortex can be measured indirectly by measuring their ability to inhibit the binding of radiolabelled gentamycin to BBM. Accordingly, the compounds according to this invention that have less affinity to BBM than for example polymyxin B inhibit the binding of radiolabelled gentamycin to a lesser degree than does polymyxin B.
BBM was isolated from the renal cortex of male albino rats by using the Mg^2+/EGTA precipitation technique as described by Nagai et al. (2006). The binding of gentamycin was measured, according to the method described by Nagai et al. (2006) by incubating BBM vesicles (20 μl) in 10 mM HEPES (pH 7.5) with 100 mM mannitol in the presence of 20 μM [^3H] gentamycin (Amersham Biosciences Inc., Buckinghamshire, U.K.) with or without the compound to be tested or a positive control. After an incubation of 60 min at 4° C., 1 ml of ice-cold buffer described above was added, and the mixture was filtered through a Millipore filter (0.45 μm; HAWP). The filter was washed with the buffer and the radioactivity remaining in the filter was measured by using a liquid scintillation counter. The IC50 values were determined as in Nagai et al. (2006) using the Hill equation.

OA-Thr-DSer-cy[Dab-Dab-DPhe-Thr-Dab-Dab-Thr-] [NAB 734]
Antibacterial activity (growth inhibition area around a well) (P. mirabilis ATCC29906; 4 μg per well): 0 square millimeters
Antibacterial activity (growth inhibition area around a well) (P. mirabilis ATCC29906; 10 μg per well): 0 square millimeters
Antibacterial activity (growth inhibition area around a well) (E. coli IH3080 (K1:O18) [1]; 4 μg of compound per well): 113 square millimeters
Antibacterial activity (growth inhibition area around a well) (E. coli IH3080 (K1:O18) [1]; 10 μg of compound per well): 177 square millimeters and 154 square millimeters
Antibacterial activity in the presence of rifampin (growth inhibition area around a well) (A. baumannii ATCC 19606; rifampin 0 μg/ml): 38 square millimeters
Antibacterial activity in the presence of rifampin (growth inhibition area around a well) (A. baumannii ATCC 19606; rifampin 0.1 μg/ml): 201 square millimeters
Antibacterial activity in the presence of rifampin (growth inhibition area around a well) (A. baumannii ATCC 19606; rifampin 0.3 μg/ml): 283 square millimeters
Antibacterial activity (growth inhibition area around a well) (S. marcescens ATCC8100; 4 μg per well): 0 square millimeters
Antibacterial activity (growth inhibition area around a well) (S. marcescens ATCC8100; 10 μg per well): 0 square millimeters
Antibacterial activity (growth inhibition area around a well) (E. coli ATCC25922; 4 μg per well): 133 square millimeters
Antibacterial activity (growth inhibition area around a well) (E. coli ATCC25922; 10 μg per well): 177 square millimeters
Antibacterial activity (growth inhibition area around a well) (K. pneumoniae CCUG45421; 4 μg per well): 64 square millimeters
Antibacterial activity (growth inhibition area around a well) (K. pneumoniae CCUG45421; 10 μg per well): 104 square millimeters
Antibacterial activity (growth inhibition area around a well) (K. oxytoca ATCC13182; 4 μg per well): 95 square millimeters
Antibacterial activity (growth inhibition area around a well) (K. oxytoca ATCC13182; 10 μg per well): 143 square millimeters
Antibacterial activity in the presence of rifampin (growth inhibition area around a well) (E. coli IH3080; rifampin 0 μg/ml): 113 square millimeters
Antibacterial activity in the presence of rifampin (growth inhibition area around a well) (E. coli IH3080; rifampin 0.1 μg/ml): 154 square millimeters
Antibacterial activity in the presence of rifampin (growth inhibition area around a well) (E. coli IH3080; rifampin 1.0 μg/ml): 201 square millimeters
Antibacterial activity (growth inhibition area around a well) (S. aureus ATCC 25923; 4 μg per well): 0 square millimeters
Antibacterial activity (growth inhibition area around a well) (S. aureus ATCC 25923; 10 μg per well): 0 square millimeters
Antibacterial activity (growth inhibition area around a well) (K. pneumoniae ATCC13883; 4 μg per well): 64 square millimeters
Antibacterial activity (growth inhibition area around a well) (K. pneumoniae ATCC13883; 10 μg per well): 113 square millimeters
Antibacterial activity (growth inhibition area around a well) ([2]; 4 μg per well): 13 square millimeters
Antibacterial activity (growth inhibition area around a well) ([2]; 10 μg per well): 50 square millimeters
Antibacterial activity (growth inhibition area around a well) ([3]; 4 μg per well): 38 square millimeters and 57 square millimeters
Antibacterial activity (growth inhibition area around a well) ([3]; 10 μg per well): 95 square millimeters and 79 square millimeters
Antibacterial activity (growth inhibition area around a well) (E. cloacae ATCC23355; 4 μg per well): 133 square millimeters
Antibacterial activity (growth inhibition area around a well) (E. cloacae ATCC23355; 10 μg per well): 177 square millimeters
Antibacterial activity in the presence of rifampin (growth inhibition area around a well) ([4]; rifampin 0 μg/ml): 13 square millimeters
Antibacterial activity in the presence of rifampin (growth inhibition area around a well) ([4]; rifampin 0.1 μg/ml): 20 square millimeters
Antibacterial activity in the presence of rifampin (growth inhibition area around a well) ([4]; rifampin 0.3 μg/ml): 20 square millimeters
Antibacterial activity (growth inhibition area around a well) (C. freundii ATCC8090; 4 μg per well): 133 square millimeters
Antibacterial activity (growth inhibition area around a well) (C. freundii ATCC8090; 10 μg per well): 177 square millimeters

CC[C@H]1OC(=O)[C@H](C)[C@@H](O[C@H]2C[C@@](C)(OC)[C@@H](O)[C@H](C)O2)[C@H](C)[C@@H](O[C@@H]2O[C@H](C)C[C@H](N(C)C)[C@H]2O)[C@](C)(O)C[C@@H](C)C(=O)[C@H](C)[C@@H](O)[C@]1(C)O [erythromycin]
CFU counts in peritoneal fluid (E. coli IH3080 (K1:O18) [5]; 4.5 h postinfection ([…] after the treatment)): 8.9 (±6.4)×10^6 per ml
Factor of increase of the bacterial count (E. coli IH3080 (K1:O18) [5]; from 1 h to 4.5 h postinfection): 12

gentamycin [unlabelled gentamycin]
IC50 [6]: 90.2 µM
